# Data taken from the supplement of paper PMC10733146.
# Assays:
# Test in all cases: viability relative to DMSO control (fraction); higher = less drug effect (more viable cells)
# Conditions in all cases: 48 h
# [1] = system: primary AML patient cells (S009)
# Summary of the method: (§1)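 Compounds were pre-plated at five concentrations, one well each, in 384-well plates, and primary mononuclear tumour cells were plated on them at 4 × 10^4 cells per well. The cells, fresh or cryopreserved, had been Ficoll-isolated from blood or bone marrow or taken from processed lymph node. After 48 h at 37 °C and 5% CO2 in RPMI-1640 with penicillin/streptomycin, L-glutamine and human serum, viability was read as CellTiter-Glo luminescence relative to the median of 16 inner DMSO wells.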
# [2] = system: primary B-PLL patient cells (S016)
# Summary of the method: as §1
# [3] = system: primary MCL patient cells (S041)
# Summary of the method: as §1
# [4] = system: primary ALL patient cells (S088)
# Summary of the method: as §1
# [5] = system: primary AML patient cells (S079)
# Summary of the method: as §1
# [6] = system: primary AML patient cells (S055)
# Summary of the method: as §1
# [7] = system: primary AML patient cells (S056)
# Summary of the method: as §1
# [8] = system: primary MCL patient cells (S063)
# Summary of the method: as §1
# [9] = system: primary DLBCL patient cells (S082)
# Summary of the method: as §1
# [10] = system: primary CLL patient cells (S031)
# Summary of the method: as §1
# [11] = system: primary FL patient cells (S087)
# Summary of the method: as §1
# [12] = system: primary FL patient cells (S022)
# Summary of the method: as §1
# [13] = system: primary BL patient cells (S005)
# Summary of the method: as §1
# [14] = system: primary T-PLL patient cells (S008)
# Summary of the method: as §1
# [15] = system: primary AML patient cells (S072)
# Summary of the method: as §1
# [16] = system: primary AML patient cells (S060)
# Summary of the method: as §1
# [17] = system: primary AML patient cells (S071)
# Summary of the method: as §1
# [18] = system: primary MCL patient cells (S053)
# Summary of the method: as §1
# [19] = system: primary ALL patient cells (S048)
# Summary of the method: as §1
# [20] = system: primary MCL patient cells (S068)
# Summary of the method: as §1
compound,measurement,setting,value
Oc1ccc(/C=C/c2cc(O)cc(O)c2)cc1 [Resveratrol],viability,[1]; 0.024 µM,0.782
same,viability,[1]; 0.12 µM,0.815
same,viability,[1]; 0.6 µM,0.815
same,viability,[1]; 3 µM,0.789
same,viability,[1]; 15 µM,0.683
same,viability,[2]; 0.024 µM,0.852
same,viability,[2]; 0.12 µM,0.85
same,viability,[2]; 0.6 µM,0.864
same,viability,[2]; 3 µM,0.907
same,viability,[2]; 15 µM,0.787
same,viability,[3]; 0.024 µM,0.948
same,viability,[3]; 0.12 µM,0.904
same,viability,[3]; 0.6 µM,0.904
same,viability,[3]; 3 µM,0.896
same,viability,[3]; 15 µM,0.77
same,viability,[4]; 0.024 µM,0.427
same,viability,[4]; 0.12 µM,0.459
same,viability,[4]; 0.6 µM,0.489
same,viability,[4]; 3 µM,0.477
same,viability,[4]; 15 µM,0.426
same,viability,[5]; 0.024 µM,0.838
same,viability,[5]; 0.12 µM,0.767
same,viability,[5]; 0.6 µM,0.792
same,viability,[5]; 3 µM,0.718
same,viability,[5]; 15 µM,0.736
same,viability,[6]; 0.024 µM,0.867
same,viability,[6]; 0.12 µM,0.931
same,viability,[6]; 0.6 µM,0.888
same,viability,[6]; 3 µM,0.83
same,viability,[6]; 15 µM,0.851
same,viability,[7]; 0.024 µM,0.714
same,viability,[7]; 0.12 µM,0.966
same,viability,[7]; 0.6 µM,0.645
same,viability,[7]; 3 µM,0.596
same,viability,[7]; 15 µM,0.466
same,viability,[8]; 0.024 µM,0.862
same,viability,[8]; 0.12 µM,0.858
same,viability,[8]; 0.6 µM,0.863
same,viability,[8]; 3 µM,0.854
same,viability,[8]; 15 µM,0.825
same,viability,[9]; 0.024 µM,0.79
same,viability,[9]; 0.12 µM,0.776
same,viability,[9]; 0.6 µM,0.828
same,viability,[9]; 3 µM,0.871
same,viability,[9]; 15 µM,0.954
same,viability,[10]; 0.024 µM,0.761
same,viability,[10]; 0.12 µM,0.766
same,viability,[10]; 0.6 µM,0.744
same,viability,[10]; 3 µM,0.67
same,viability,[10]; 15 µM,0.553
same,viability,[11]; 0.024 µM,0.804
same,viability,[11]; 0.12 µM,0.857
same,viability,[11]; 0.6 µM,0.803
same,viability,[11]; 3 µM,0.877
same,viability,[11]; 15 µM,0.815
same,viability,[12]; 0.024 µM,0.832
same,viability,[12]; 0.12 µM,0.823
same,viability,[12]; 0.6 µM,0.784
same,viability,[12]; 3 µM,0.847
same,viability,[12]; 15 µM,0.811
same,viability,[13]; 0.024 µM,0.942
same,viability,[13]; 0.12 µM,0.954
same,viability,[13]; 0.6 µM,0.921
same,viability,[13]; 3 µM,0.9
same,viability,[13]; 15 µM,0.828
same,viability,[14]; 0.024 µM,1
same,viability,[14]; 0.12 µM,1.02
same,viability,[14]; 0.6 µM,0.915
same,viability,[14]; 3 µM,0.966
same,viability,[14]; 15 µM,0.897
same,viability,[15]; 0.024 µM,1.07
same,viability,[15]; 0.12 µM,0.797
same,viability,[15]; 0.6 µM,0.816
same,viability,[15]; 3 µM,0.798
same,viability,[15]; 15 µM,0.687
same,viability,[16]; 0.024 µM,0.964
same,viability,[16]; 0.12 µM,0.99
same,viability,[16]; 0.6 µM,0.946
same,viability,[16]; 3 µM,0.918
same,viability,[16]; 15 µM,0.893
same,viability,[17]; 0.024 µM,0.774
same,viability,[17]; 0.12 µM,0.734
same,viability,[17]; 0.6 µM,0.732
same,viability,[17]; 3 µM,0.688
same,viability,[17]; 15 µM,0.591
same,viability,[18]; 0.024 µM,0.75
same,viability,[18]; 0.12 µM,0.671
same,viability,[18]; 0.6 µM,0.595
same,viability,[18]; 3 µM,0.686
same,viability,[18]; 15 µM,0.772
same,viability,[19]; 0.024 µM,0.621
same,viability,[19]; 0.12 µM,0.574
same,viability,[19]; 0.6 µM,0.479
same,viability,[19]; 3 µM,0.637
same,viability,[19]; 15 µM,0.681
same,viability,[20]; 0.024 µM,0.614
same,viability,[20]; 0.12 µM,0.63
same,viability,[20]; 0.6 µM,0.639
same,viability,[20]; 3 µM,0.7
same,viability,[20]; 15 µM,1.16
